Measured values from US8889878B2, “Haloalky-substituted amides as insecticides and acaricides” (Bayer CropScience AG, priority 2009, dated 2014).

Experiments:
Boophilus microplus [1] = test: Boophilus microplus test (BOOPMI injection), Example 11; assay type: in vivo; conditions: application rate 20 μg/animal, injected into abdomen, after 7 days; for pest or weed control at 0.02 mg: Rhipicephalus microplus, 168 h, read-out: efficacy in % (fertile eggs laid)
Summary of the method: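 Adult ticks injected in the abdomen with compound diluted in DMSO, then held in a climate-controlled room. Efficacy in % determined after 7 days from fertile eggs laid; 100% means no tick laid fertile eggs.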

Musca domestica adults = test: Musca domestica test (MUSCDO), Example 14; assay type: in vivo; conditions: application rate 100 ppm, treated sponge, after 2 days
Protocol: (§1) Musca domestica Test (MUSCDO) • Solvent: dimethyl sulphoxide To prepare an appropriate active ingredient formulation, 10 mg of active ingredient are mixed with 0.5 ml of dimethyl sulphoxide, and the concentrate is diluted with water to the desired concentration. Vessels containing a sponge which has been treated with the active ingredient formulation of the desired concentration are populated with Musca domestica adults. After 2 days, the kill rate in % is determined. 100% means that all flies were killed; 0% means that no flies were killed.

[2] = test system: armyworm (Spodoptera frugiperda); test: Spodoptera frugiperda test (SPODFR spray treatment), Example 15; assay type: in vivo; conditions: maize leaf discs sprayed, after 7 days; for pest or weed control at 500 g/ha: Spodoptera frugiperda, foliar, 168 h, read-out: efficacy in %
Summary of the method: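 Maize leaf discs sprayed with active ingredient in acetone/DMF with alkylaryl polyglycol ether emulsifier, diluted in water, then populated with caterpillars after drying. Efficacy in % after 7 days: 100% all caterpillars killed, 0% none.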

[3] = test system: mustard beetle (Phaedon cochleariae); test: Phaedon test (PHAECO spray treatment), Example 16; assay type: in vivo; conditions: Phaedon cochleariae, foliar; application rate 500 g/ha, china cabbage leaf discs sprayed, after the desired time; read-out: efficacy in %
Protocol: Phaedon Test (PHAECO Spray Treatment)
(§2) • Solvent: 78.0 parts by weight of acetone • 1.5 parts by weight of dimethylformamide • Emulsifier: 0.5 part by weight of alkylaryl polyglycol ether
To prepare an appropriate active ingredient formulation, 1 part by weight of active ingredient is mixed with the stated amounts of solvent and emulsifier, and the concentrate is diluted with emulsifier-containing water to the desired concentration. […]
After the desired time, the efficacy in % is determined. 100% means that all beetle larvae were killed; 0% means that no beetle larvae were killed.

[4] = logP by HPLC on reverse-phase column (EEC Directive 79/831 Annex V.A8); assay type: physicochemical; conditions: for chromatographic logP: reverse-phase C18 HPLC column
Protocol: The logP values reported in the above Tables and Preparation Examples were determined according to EEC Directive 79/831 Annex V.A8 by HPLC (High Performance Liquid Chromatography) on a reverse-phase column (C18). Temperature 43° C.

Boophilus microplus [5] = test: Boophilus microplus test (BOOPMI injection), Example 1; assay type: in vivo; conditions: application rate 20 μg/animal, injected into abdomen, after 7 days
Protocol: Boophilus microplus Test (BOOPMI Injection) • Solvent: dimethyl sulphoxide To prepare an active ingredient formulation, 10 mg of active ingredient are mixed with 0.5 ml of solvent and the concentrate is diluted with water to the desired concentration. The active ingredient solution was injected into the abdomen (Boophilus microplus), and the animals were transferred to dishes and stored in a climate-controlled room. The efficacy was assessed by the number of fertile eggs laid. After 7 days, the efficacy in % is determined. 100% means that no tick laid fertile eggs.

Ctenocephalides felis = Ctenocephalides felis oral (CTECFE), Example 2; assay type: in vivo; conditions: application rate 20 ppm in citrated cow's blood, after 2 days
Protocol: Ctenocephalides felis Oral ([…]) • Solvent: 1 part by weight of dimethyl sulphoxide For the purpose of preparing an active ingredient formulation, 10 mg of active ingredient are mixed with 0.5 ml of dimethyl sulphoxide. A portion of the concentrate was diluted with citrated cow's blood and the desired concentration was prepared. 20 unfed adult fleas (Ctenocephalides felis) are placed into a chamber sealed at the top and bottom with gauze. A metal cylinder with its lower end sealed with Parafilm is placed onto the chamber. The cylinder contains the blood-active ingredient preparation, which can be consumed by the fleas through the Parafilm membrane. After 2 days, the kill rate in % is determined. 100% means that all fleas were killed; 0% means that no fleas were killed.

[6] = test system: green peach aphid (Myzus persicae); test: Myzus test (MYZUPE spray treatment), Example 17; assay type: in vivo; conditions: china cabbage leaf discs sprayed, after 6 days
Summary of the method: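 Chinese cabbage leaf discs infested with all aphid stages were sprayed with compound formulated in acetone/dimethylformamide plus alkylaryl polyglycol ether emulsifier, diluted in emulsifier-containing water. Mortality read after 6 days as % efficacy (100% all killed, 0% none killed).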

[7] = test system: mustard beetle (Phaedon cochleariae); test: Phaedon test (PHAECO spray treatment), Example 7; assay type: in vivo; conditions: application rate 20 g/ha, china cabbage leaf discs sprayed, after 7 days
Summary of the method: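 Spray formulation (acetone/DMF with alkylaryl polyglycol ether, diluted in emulsifier-containing water) applied to Chinese cabbage leaf discs, which were dried and then stocked with mustard beetle larvae. Efficacy scored at 7 days as % larvae killed (100% all, 0% none).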

[8] = test system: red spider mite (Tetranychus urticae); test: Tetranychus test, OP-resistant (TETRUR spray treatment), Example 8; assay type: in vivo; conditions: application rate 20 g/ha, common bean leaf discs sprayed, after 6 days
Protocol: Tetranychus Test, OP-resistant (TETRUR Spray Treatment)
as §2
To prepare an active ingredient formulation, 1 part by weight of active ingredient is mixed with the stated amounts of solvent and emulsifier, and the concentrate is diluted with emulsifier-containing water to the desired concentration.
Leaf discs from the common bean (Phaseolus vulgaris) infested by all stages of the red spider mite (Tetranychus urticae) are sprayed with an active ingredient formulation of the desired concentration.
After 6 days, the efficacy in % is determined. 100% means that all spider mites were killed; 0% means that no spider mites were killed.

Lucilia cuprina larvae = test: Lucilia cuprina test (LUCICU), Example 13; assay type: in vivo; conditions: application rate 100 ppm, treated horsemeat, after 2 days
Protocol: as §1, with “Lucilia cuprina” for “Musca domestica”, “(LUCICU)” for “(MUSCDO)”, “horsemeat” for “a sponge”, “about 20 Lucilia cuprina larvae.” for “Musca domestica adults.”, “larvae” for “flies”

SMILES	efficacy in % (fertile eggs laid) (Boophilus microplus [1])	kill rate in % (efficacy) (Musca domestica adults)	logP ([4]; HPLC-MS)	other results
Cn1c(C(=O)NC(c2cccc(C(F)(F)F)c2)C(F)(F)F)cc2cc(C(=O)NC3CC3)c(Cl)cc21 (racemic) [Ic-25]	100%	100%	–	–
N#Cc1ccc(/C=C/C(=O)NC(c2cccc(C(F)(F)F)c2)C(F)(F)F)cc1 (centres unmarked) [Ia-8, (2E)-3-(4-Cyanophenyl)-N-{2,2,2-trifluoro-1-[3-(trifluoromethyl)phenyl]ethyl}acrylamide]	–	–	–	pest or weed control at 500 g/ha ([2]; application rate 500 g/ha): 100%; pest or weed control at 0.02 mg (Boophilus microplus [1]): 100%; pest or weed control at 500 g/ha [3]: 100%; chromatographic logP ([4]; pH 2.7, HPLC, C18 reverse phase, 43° C., acidic range pH 2.7, calibration with alkan-2-ones): 3.54; efficacy in % (fertile eggs laid) (Boophilus microplus [5]): 100%
O=C(/C=C/c1ccc(C(=O)NCC(F)(F)F)c(Cl)c1)NC(c1cccc(C(F)(F)F)c1)C(F)(F)F (centres unmarked) [Ia-19]	100%	100%	HPLC-MS: logP = 3.56; mass	–
O=C(/C=C/c1ccc(C(=O)NCc2ccccn2)c(C(F)(F)F)c1)NC(c1ccc(Cl)c(Cl)c1)C(F)(F)F (centres unmarked) [Ia-32]	100%	–	HPLC-MS: logP = 2.98; mass	efficacy in % ([2]; application rate 500 g/ha): 83%; kill rate in % (efficacy) (Ctenocephalides felis): 100%; efficacy in % (fertile eggs laid) (Boophilus microplus [5]): 100%
N#Cc1ccc(/C=C/C(=O)NC(c2cccc(C(F)(F)F)c2)C(F)(F)F)cc1C(F)(F)F (centres unmarked) [Ia-46, (2E)-3-[4-cyano-3-(trifluoromethyl)phenyl]-N-{2,2,2-trifluoro-1-[3-(trifluoromethyl)phenyl]ethyl}acrylamide]	–	–	–	pest or weed control at 500 g/ha ([2]; application rate 500 g/ha): 100%; pest or weed control at 0.02 mg (Boophilus microplus [1]): 100%; pest or weed control at 500 g/ha [3]: 100%; chromatographic logP ([4]; HPLC-MS): 4.06; efficacy in % (fertile eggs laid) (Boophilus microplus [5]): 100%
O=C(/C=C/c1ccc(C(=O)NCC(F)F)c(C(F)(F)F)c1)NC(c1cccc(C(F)(F)F)c1)C(F)(F)F (centres unmarked) [Ia-57]	100%	100%	HPLC-MS: logP = 3.48; mass	efficacy in % ([6]; application rate 500 g/ha): 100%; efficacy in % [7]: 100%; efficacy in % [8]: 90%
COCCNC(=O)c1ccc(/C=C/C(=O)NC(c2cccc(C(F)(F)F)c2)C(F)(F)F)cc1C(F)(F)F (centres unmarked) [Ia-58]	100%	–	HPLC-MS: logP = 3.12; mass	efficacy in % ([6]; application rate 500 g/ha): 100%; efficacy in % ([2]; application rate 500 g/ha): 83%; efficacy in % [7]: 100%; kill rate in % (efficacy) (Ctenocephalides felis): 98%; efficacy in % (fertile eggs laid) (Boophilus microplus [5]): 100%; efficacy in % [8]: 90%
O=C(/C=C/c1ccc(C(=O)NC2COC2)c(Br)c1)NC(c1cccc(C(F)(F)F)c1)C(F)(F)F (centres unmarked) [Ia-94]	100%	–	HPLC-MS: logP = 2.8 mass	efficacy in % [7]: 100%; kill rate in % (efficacy) (Lucilia cuprina larvae): 95%; efficacy in % [8]: 80%
O=C(/C=C/c1ccc(C(=O)Nc2ccc(Cl)cn2)c(C(F)(F)F)c1)NC(c1cccc(C(F)(F)F)c1)C(F)(F)F (centres unmarked) [Ia-122]	100%	90%	HPLC-MS: logP = 4.3; mass	–
CC(NC(=O)c1ccc(/C=C/C(=O)NC(c2cccc(C(F)(F)F)c2)C(F)(F)F)cc1C(F)(F)F)c1ccccn1 (centres unmarked) [Ia-128]	100%	–	HPLC-MS: logP = 3.22; mass	kill rate in % (efficacy) (Lucilia cuprina larvae): 90%
CC(NC(=O)c1ccc(/C=C/C(=O)NC(c2cccc(C(F)(F)F)c2)C(F)(F)F)cc1Br)c1ccccn1 (centres unmarked) [Ia-134]	100%	–	HPLC-MS: logP = 3.11; mass	kill rate in % (efficacy) (Lucilia cuprina larvae): 90%
CC(Cn1cccn1)NC(=O)c1ccc(/C=C/C(=O)NC(c2cccc(C(F)(F)F)c2)C(F)(F)F)cc1C(F)(F)F (centres unmarked) [Ia-139]	100%	–	HPLC-MS: logP = 3.42; mass	kill rate in % (efficacy) (Lucilia cuprina larvae): 80%
N#CC1CC1NC(=O)c1ccc(/C=C/C(=O)NC(c2cccc(C(F)(F)F)c2)C(F)(F)F)cc1C(F)(F)F (centres unmarked) [Ia-140]	100%	100%	HPLC-MS: logP = 3.37; mass	efficacy in % ([6]; application rate 100 g/ha): 90%; efficacy in % ([2]; application rate 100 g/ha): 100%
CC(C#N)NC(=O)c1ccc(/C=C/C(=O)NC(c2cccc(C(F)(F)F)c2)C(F)(F)F)cc1C(F)(F)F (centres unmarked) [Ia-141]	100%	100%	HPLC-MS: logP = 3.39; mass	efficacy in % ([6]; application rate 100 g/ha): 100%; efficacy in % ([2]; application rate 100 g/ha): 100%
CNC(=O)c1ccc(/C=C/C(=O)NC(c2cccc(C(F)(F)F)c2)C(F)(F)F)cc1C(F)(F)F (centres unmarked) [Ia-147]	100%	–	HPLC-MS: logP = 3.09; mass	efficacy in % ([2]; application rate 100 g/ha): 100%; kill rate in % (efficacy) (Lucilia cuprina larvae): 80%
CC(CC1CC1)NC(=O)c1ccc(/C=C/C(=O)NC(c2cccc(C(F)(F)F)c2)C(F)(F)F)cc1C(F)(F)F (centres unmarked) [Ia-148]	100%	90%	HPLC-MS: logP = 4.24; mass	efficacy in % ([2]; application rate 100 g/ha): 100%
CC(C)ONC(=O)c1ccc(/C=C/C(=O)NC(c2cccc(C(F)(F)F)c2)C(F)(F)F)cc1C(F)(F)F (centres unmarked) [Ia-149]	100%	100%	HPLC-MS: logP = 3.48; mass	efficacy in % ([2]; application rate 100 g/ha): 100%
C#CCNC(=O)c1ccc(/C=C/C(=O)NC(c2cccc(C(F)(F)F)c2)C(F)(F)F)cc1Cl (centres unmarked) [Ia-151]	100%	80%	HPLC-MS: logP = 3.2; mass	–
O=C(/C=C/c1ccc(C(=O)NC2CSC2)c(Cl)c1)NC(c1cccc(C(F)(F)F)c1)C(F)(F)F (centres unmarked) [Ia-152]	100%	–	HPLC-MS: logP = 3.51; mass	efficacy in % ([6]; application rate 100 g/ha): 80%; kill rate in % (efficacy) (Lucilia cuprina larvae): 90%
CC(NC(=O)c1ccc(/C=C/C(=O)NC(c2cccc(C(F)(F)F)c2)C(F)(F)F)cc1Cl)C(F)(F)F (centres unmarked) [Ia-158]	100%	100%	HPLC-MS: logP = 3.78; mass	efficacy in % ([6]; application rate 100 g/ha): 80%; efficacy in % ([2]; application rate 100 g/ha): 100%
O=C(/C=C/c1ccc(C(=O)NCC2CC2)c(Cl)c1)NC(c1cccc(C(F)(F)F)c1)C(F)(F)F (centres unmarked) [Ia-163]	100%	100%	HPLC-MS: logP = 3.54; mass	efficacy in % ([6]; application rate 100 g/ha): 100%
